Results from patent US5190940A, “Cholesterol ester hydrolase inhibitors” (American Home Products Corporation, priority 1991, dated 1993).
Where two headings read alike, the source gives them in different places.

Columns and labels:
[1] = biological target: T1, cholesterol esterase (cholesterol ester hydrolase; CEH) (Bos taurus, UniProt P30122); assay: Inhibition of cholesteryl ester formation by cholesterol esterase (CEH), in vitro; type: biochemical, bovine
T1 construct: purchased Sigma C-1892; host or cells: bovine pancreas
T1 sequence (P30122 19-597): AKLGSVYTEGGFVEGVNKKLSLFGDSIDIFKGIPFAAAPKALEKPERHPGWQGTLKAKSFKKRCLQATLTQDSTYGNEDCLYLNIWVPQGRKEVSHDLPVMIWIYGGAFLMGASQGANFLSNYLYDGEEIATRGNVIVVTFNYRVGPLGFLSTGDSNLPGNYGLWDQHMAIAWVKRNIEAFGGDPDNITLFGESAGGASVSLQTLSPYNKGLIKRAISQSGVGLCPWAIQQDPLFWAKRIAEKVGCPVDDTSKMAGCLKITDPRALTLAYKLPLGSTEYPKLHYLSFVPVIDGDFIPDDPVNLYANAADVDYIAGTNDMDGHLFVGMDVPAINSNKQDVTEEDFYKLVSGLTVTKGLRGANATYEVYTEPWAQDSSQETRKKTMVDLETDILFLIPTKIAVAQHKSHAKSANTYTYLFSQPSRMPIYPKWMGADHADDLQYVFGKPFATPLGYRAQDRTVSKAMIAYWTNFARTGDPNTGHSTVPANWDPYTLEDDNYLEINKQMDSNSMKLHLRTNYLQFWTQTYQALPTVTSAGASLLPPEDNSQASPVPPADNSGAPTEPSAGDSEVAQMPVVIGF
Experimental: The ability of the compounds of this invention to inhibit the formation of cholesteryl esters and thereby interfere with and prevent assimilation of cholesterol into the lymphatic system and ultimately the blood stream was established by incubating the compounds at 37° C. with a mixture of cholesterol and oleic acid in the presence of buffered cholesterol esterase [([…]) Sigma No. C-1892, from bovine pancreas] and measuring the amount of ester formed, according to the procedure of Field, J. of Lipid Research, 25 389 (1984).

[2] = test system: Absorption of ^14 C-Chol.; assay: In vivo cholesterol absorption study in normal rats, serum radioactivity after oral [4-^14 C] cholesterol; settings: suspended in olive oil, normal rat, 6 hr
Experimental: The in vivo cholesterol absorption studies were conducted in normal rats by oral administration of the compound being tested suspended in olive oil followed by oral administration of [4-^14 C] cholesterol in propylene glycol, otherwise following the procedure of Cayen et al., J. Lipid Res. 20 162 (1979). The serum radioactivity was measured at six hours after dosing. The results of this study are reported in the following Table, where available, as percent decrease compared to control.

[3] = 37° C., cholesterol and oleic acid, buffered cholesterol esterase from bovine pancreas, read-out: IC50 Against CEH (concentration that inhibits one-half of the ester formation)

Compound	IC50 [1] [µM]	Effects on Absorption of ^14 C-Chol., percent decrease compared to control ([2]; 100 mg/kg) [%]	Effects on Absorption of ^14 C-Chol., percent decrease compared to control ([2]; 250 mg/kg) [%]	IC50 [1, 3] [µM]
CCCCCCCCNC(=O)Oc1ccccc1-c1ccccc1 [Example 1, Octylcarbamic acid[1.1'-biphenyl]-2-yl ester]	1.5	–	–	–
CCCCCCCN(Cc1ccc(CC(C)(C)C)cc1)C(=O)Oc1ccccc1-c1ccccc1 [Example 2, [[4-(2,2-Dimethylpropyl)phenyl]methyl]heptylcarbamic acid[1,1'-biphenyl]-2-yl ester]	100	–	–	–
O=C(NC1CCCCC1)Oc1ccccc1-c1ccccc1 [Example 3, Cyclohexylcarbamic acid[1,1'-biphenyl]-2-yl ester]	5	21	–	–
O=C(NCC1CCCCC1)Oc1ccccc1-c1ccccc1 [Example 4, (Cyclohexylmethyl)carbamic acid[1,1'-biphenyl]-2-yl ester]	3	21	–	–
O=C(NCCCCc1ccccc1)Oc1ccccc1-c1ccccc1 [Example 5, (4-Phenylbutyl)carbamic acid[1,1'-biphenyl]-2-yl ester]	0.25	–	46	–
CC1(C)CCCN(C(=O)Oc2ccccc2-c2ccccc2)C1 [Example 6, 3,3-Dimethyl-1-piperidinecarboxylic acid[1,1'-biphenyl]-2-yl ester]	–	–	–	38
O=C(Oc1ccccc1-c1ccccc1)N1CCCCC1 [Example 7, 1-Piperidinecarboxylic acid[1,1'-biphenyl]-2-yl ester]	–	–	19	0.08
CC1CCN(C(=O)Oc2ccccc2-c2ccccc2)CC1 [Example 8, 4-Methyl-1-piperidinecarboxylic acid[1,1'-biphenyl]-2-yl ester]	–	–	–	0.8
O=C(Oc1ccccc1-c1ccccc1)N1CCC(c2ccccc2)CC1 [Example 9, 4-Phenyl-1-piperidinecarboxylic acid[1.1'-biphenyl]-2-yl ester]	–	11	–	1.9
O=C(Oc1ccccc1-c1ccccc1)N1CCOCC1 [Example 10, 4-Morpholinecarboxylic acid[1.1'-biphenyl]-2-yl ester]	26	–	–	–
O=C(Oc1ccccc1-c1ccccc1)N1CCSCC1 [Example 11, 4-Thiomorpholinecarboxylic acid[1.1'-biphenyl]-2-yl ester]	–	21	–	1.2
CN1CCN(C(=O)Oc2ccccc2-c2ccccc2)CC1 [Example 12, 4-Methyl-1-piperazinecarboxylic acid[1,1'-biphenyl]-2-yl ester]	25	–	–	–
O=C(Oc1ccccc1-c1ccccc1)N1CCN(c2ccccc2)CC1 [Example 13, 4-Phenyl-1-piperazinecarboxylic acid[1,1'-biphenyl]-2-yl ester]	–	–	–	53
